Data from patent US9175305B2, “Mutant hydroxyphenylpyruvate dioxygenase polypeptides and methods of use” (Syngenta Participations AG, priority 2009, dated 2015).

Legend:
[1] = test system: E. coli BL21 cells expressing HPPD SEQ ID NO:24; assay type: cell-based; details: 20 ppm sulcotrione (data not shown)
Procedure: (§1) Cells were grown from a 10% starting inoculum into 0.5 ml of L-broth containing 50 μg of kanamycin ml^−1 in […] for 48-96 h at 15° C. Typically pyomelanin colour in the medium was read (at 430 nm) after ˜72 h.

[2] = test system: E. coli cells expressing mutant G408A; details: 25 ppm sulcotrione
Procedure: as §1

[3] = test system: soybean event S8 (vector 17147) expressing SEQ ID NO:24; assay: herbicide spray test on soybean events; assay type: in vivo; details: event S8/SEQ#24, V2 growth stage, 14 DAT, average of n=7
Text: (§2) Each data point represents the average damage score from n=7 replicates.
(§3) These events were used to compare the performance of five 17147 events. Four of these, SF, S8, S7 and S3 had not been preselected for tolerance level (other than to confirm resistance, non-chimerical nature and the presence of the gene) while the remaining event, T0, had been preselected as the most resistant out of five 17147 events in a preliminary field test.
(§4) Plants were in 4×4×4 inch plastic pots and grown under a 15/9 hour light regime (daylight supplemented by artificial light in greenhouses) at a minimum night-time temperature of 18° C. and maximum daytime temperature of 27° C. Soil was regular VBRC mix (1:1 mixture of Vero field soil and Fafard Mix II) where Vero field soil is 98% sand and 2% clay. […] Spray volume was 150 L/ha and the damage scores reflect assessments at 14 DAT.

[4] = test system: soybean event 2 (vector 15764) expressing SEQ ID NO:14; assay: herbicide spray test on soybean events; assay type: in vivo; details: event 2/SEQ#14, V2 growth stage, 14 DAT, average of n=7
Text: as §2, §3, §4

[5] = test system: soybean event S7 (vector 17147) expressing SEQ ID NO:24; assay: herbicide spray test on soybean events; assay type: in vivo; details: event S7/SEQ#24, V2 growth stage, 14 DAT, average of n=7
Text: as §2, §3, §4

[6] = test system: soybean event 1 (vector 15764) expressing SEQ ID NO:14; assay: herbicide spray test on soybean events; assay type: in vivo; details: event 1/SEQ#14, V2 growth stage, 14 DAT, average of n=7
Text: as §2, §3, §4

[7] = test system: soybean event T0 (vector 17147) expressing SEQ ID NO:24; assay: herbicide spray test on soybean events; assay type: in vivo; details: event T0/SEQ#24, V2 growth stage, 14 DAT, average of n=7
Text: as §2, §3, §4

[8] = test system: soybean event SF (vector 17147) expressing SEQ ID NO:24; assay: herbicide spray test on soybean events; assay type: in vivo; details: event SF/SEQ#24, V2 growth stage, 14 DAT, average of n=7
Text: as §2, §3, §4

[9] = test system: soybean event S3 (vector 17147) expressing SEQ ID NO:24; assay: herbicide spray test on soybean events; assay type: in vivo; details: event S3/SEQ#24, V2 growth stage, 14 DAT, average of n=7
Text: as §2, §3, §4

HPPD SEQ ID NO:26 = assay: biochemical; assay type: binding, Avena sativa; details: off rate, FIGS. 4A-4C
Procedure: On rates (governed by an association rate constant, kon) for the formation of the enzyme: inhibitor complexes, EI and off rates (governed by a dissociation rate constant, koff) were determined by methods known in the art and essentially as described in Hawkes et al. (2001) Proc. Bright. Crop. Prot. Conf. Weeds, 2:563-568 and in PCT Patent App. Pub. No. WO 02/46387).
For example, on rates were measured by, at zero time, adding ˜60 pmoles HPPD to 50 mM BisTrisPropane buffer at pH7.0 and at 25° C. containing 25 mM Na ascorbate, 4 μg/ml bovine catalase (Sigma, St. Louis, Mo.) and an excess (˜300 pmoles) of ^14C inhibitor in a total assay volume of 425 μl and, at various time points (0-180 s), quenching the radiolabel binding reaction by addition and rapid mixing of 100 μl ‘cold’ 1 mM structure A. Protein samples quenched at different times were then exchanged into 50 mM BisTrisPropane buffer at pH 7.0 containing 0.1M KCl by rapid chromatography down a NAP5 G25 Sephadex column (GE Healthcare Ltd, Buckinghamshire UK) and the amount of ^14C bound to protein fractions quantified in Optiphase scintillant using a Tri-Carb 2900TR scintillation counter (Perkin Elmer, Wellesley, Mass.). The data were fit according to the scheme below in order to derive the value of the apparent second order rate constant, k2, governing the association rate of enzyme and radiolabelled inhibitor. […]

[10] = test system: G408A mutant of HPPD SEQ ID NO:14; assay: time course of inhibition of enzyme activity; assay type: biochemical, Avena sativa
[11] = test system: tobacco plants expressing HPPD SEQ ID NO:24; assay: herbicide spray test on transgenic tobacco; assay type: in vivo; details: 13 DAT
[12] = test system: tobacco plants expressing HPPD SEQ ID NO:14; assay: herbicide spray test on transgenic tobacco; assay type: in vivo; details: 13 DAT
Jack w/t = assay: herbicide spray test on soybean; assay type: in vivo; details: V2 growth stage, 14 DAT, average of n=7
Procedure: as §2, §4

[13] = test system: control SEQ ID NO:14 HPPD; assay: time course of inhibition of enzyme activity, control enzyme; assay type: biochemical, Avena sativa; details: artifact of the method due to fast off rate during the 150 s assay
[14] = 300 g/ha, smaller-sized population
[15] = 500 g/ha, larger-sized population

## CS(=O)(=O)c1ccc(C(=O)C2C(=O)CCCC2=O)c(Cl)c1 [sulc, sulcotrione]
[1]
  tolerance in pyomelanin assay: enhanced tolerance
[2]
  resistance in pyomelanin assay: resistance relative to HPPD SEQ ID NO:14

## CS(=O)(=O)c1ccc(C(=O)C2C(=O)CCCC2=O)c([N+](=O)[O-])c1 [Structure B, mesotrione]
[3]; B 420 g/ha
  % dam.: 18.6%
[3]; B 840 g/ha
  % dam.: 19.3%
[4]; B 420 g/ha
  % dam.: 20.7%
[4]; B 840 g/ha
  % dam.: 22.1%
[5]; B 420 g/ha
  % dam.: 10.6%
[5]; B 840 g/ha
  % dam.: 6.9%
[6]; B 420 g/ha
  % dam.: 11.4%
[6]; B 840 g/ha
  % dam.: 9.3%
[7]; B 420 g/ha
  % dam.: 8.3%
[7]; B 840 g/ha
  % dam.: 5.3%
[8]; B 420 g/ha
  % dam.: 15.7%
[8]; B 840 g/ha
  % dam.: 25%
[9]; B 420 g/ha
  % dam.: 15.3%
[9]; B 840 g/ha
  % dam.: 15.3%
HPPD SEQ ID NO:26
  dissociation from HPPD SEQ ID NO:26 compared with HPPD SEQ ID NO:24: about twice as fast
[10]; 0.6 μM B, enzyme about 75 nM, incubation up to 260 s, inhibition levelled off
  residual activity: about 35%
[10]; ice temperature
  radiochemically determined off rate compared with control SEQ ID NO:14 HPPD: indistinguishable
[10]; inhibitor at 0.15 or 0.6 μM
  extent of inhibition compared with the control enzyme: to a lesser extent
[11]; [14]
  plants exhibiting visible herbicide damage (number of plants): 2 of 28
[11]; [15]
  plants exhibiting symptoms of herbicide damage: 10%
  plants exhibiting symptoms of herbicide damage (number of plants): 4 of 38
[12]; [14]
  plants exhibiting visible herbicide damage (number of plants): 4 of 26
[12]; [15]
  plants exhibiting damage: 27%
Jack w/t; B 420 g/ha
  % dam.: 82.9%
Jack w/t; B 840 g/ha
  % dam.: 83.6%
[13]
  residual activity: ~8%
